Laboratory results taken from patent publication US20230212606A1, “COMPOSITIONS AND METHODS FOR TREATING KCNQ4-ASSOCIATED HEARING LOSS” (Akouos, Inc., priority 2020, published 2023).

How the values were obtained:
[1] = system: KCNQ4; assay: shRNA- and CRISPR-mediated knockdown of KCNQ4 expression in HEK293 cells (FIG. 3, lanes); assay type: cell-based, human; conditions: HEK293 cells with KCNQ4 construct, N=4 biological replicates
Method: The following shRNA constructs and KCNQ4 constructs were tested in HEK293 cells: sh395, sh909, sh1095, sh1531, sh1593, sh1677, sh1721, and sh1827 (see FIG. 3). The following constructs were tested in HEK293 cells as a positive control (e.g., as a reference for maximum knockdown of KCNQ4 that can be achieved): SaCas9+sgRNA 447Fw+KCNQ4 (lane 11). A shVEGF construct (targeting VEGF) and KCNQ4 construct were tested in HEK293 cells as a negative control (lane 10). In addition, only the KCNQ4 construct was tested in HEK293 cells as a negative control (lane 12). […] The level of expression of KCNQ4 was most reduced by sh1827 and sgRNA 447Fw in this example. FIGS. 11 and 12 each show efficacy of knockdown with each of the shRNA constructs as well as an empty shRNA construct (“Mock”). Levels of KCNQ4 were measured using quantitative PCR, normalized to GAPDH. Two independent biological replicates were performed (FIGS. 11 and 12), each of which had three replicates per condition.

[2] = system: KCNQ4; assay: SaCas9/gRNA knockdown of KCNQ4 in HEK cells, western blot, TIDE, immunofluorescence (FIG. 10); assay type: cell-based, human; conditions: western blot and immunofluorescence analyses (data not shown)
Source text: The present example describes a targeting strategy that knocks out both KCNQ4 alleles and replaces wild-type KCNQ4 with a codon-optimized KCNQ4 using a SaCas9/gRNA strategy FIG. (FIG. 9). The present example also describes an in vitro analysis of KCNQ4 knockdown in HEK cells via Western blot and quantitative PCR.
The following guides were transfected with SaCas9 and KCNQ4 DNA to determine knockdown efficiency: sg233Fw (lane 2), sg386Fw (lane 3), sg408Rev (lane 4), sg447Fw(lane 5), sg482Fw (lane 6), and sg490Fw (lane 7). An untransfected control (lane 8), sgVEGF (targeting VEGF) (lane 9), and Beta-Actin expression (lanes 2-9) were used as controls. […] To expand and/or improve upon results obtained thus far, similar experiments can be performed in 3T3 cells using deadCas9 and mouse sgRNA sequences.

Row | Substance | level of expression of KCNQ4 [1] | inhibition of KCNQ4 expression relative to other sgRNAs [2]
1 | sh1827: shRNA construct targeting KCNQ4; by order probably SEQ ID NO: 55 (GGTGGATGAAATCAGCATGATCGAAATCATGCTGATTTCATCCACC) | most reduced | 
2 | sgRNA 447Fw: gRNA targeting KCNQ4, SEQ ID NO: 45, target TTTCGGCTTGGAGTACATCGT; used with SaCas9 (expressed or natural sequence) | most reduced | 
3 | sgRNA 386Fw: gRNA targeting KCNQ4, SEQ ID NO: 42, target AGGAGCACCAGGAACTTGCCA (expressed or natural sequence) |  | inhibited KNCQ4 expression more than other sgRNAs
4 | sgRNA 408Rev: gRNA targeting KCNQ4, SEQ ID NO: 43, target AAGCCGAAAACCACGATCATC (expressed or natural sequence) |  | inhibited KNCQ4 expression more than other sgRNAs
